Source: BindingDB's records for doi:10.1021/jm5002919 (Takeda Pharmaceutical, 2014)

Molecular target: G-protein coupled receptor 52 (Homo sapiens, UniProt Q9Y2T5)
Experiment: Agonist activity at human GPR52 expressed in CHO cells assessed as cAMP production after 30 mins by Alphascreen assay

Chain of G-protein coupled receptor 52 (Q9Y2T5 whole entry): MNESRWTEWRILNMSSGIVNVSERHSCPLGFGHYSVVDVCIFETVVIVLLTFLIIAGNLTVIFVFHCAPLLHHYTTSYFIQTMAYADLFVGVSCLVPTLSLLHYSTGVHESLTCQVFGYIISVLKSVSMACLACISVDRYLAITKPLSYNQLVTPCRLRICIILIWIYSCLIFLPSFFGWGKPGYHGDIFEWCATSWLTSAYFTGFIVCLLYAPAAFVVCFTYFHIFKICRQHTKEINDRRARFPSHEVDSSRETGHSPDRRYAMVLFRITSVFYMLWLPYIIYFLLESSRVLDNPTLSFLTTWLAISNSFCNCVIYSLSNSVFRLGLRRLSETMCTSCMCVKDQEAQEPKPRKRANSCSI

COc1ccc(-c2ccnc(NCCc3ccc(OC)c(OC)c3C)n2)cc1
EC50: > 10 µM
